Assay [1] has as its target T1, EphA2 (Homo sapiens (Human), UniProt P29317). Briefly: Endogenous EphA2 tyrosine phosphorylation by ELISA in RKO cell lysates. It counts as cell-based. The procedure: (§1) ELISA. ELISA plates (ThermoFisher Scientific, Immulon 4HBX, 3855) were coated overnight at 4° C. with capture antibody 75 ng/well in PBS, and blocked with 5% BSA (Sigma-Aldrich, St. Louis, MO) in PBS for two hours at room temperature. Capture antibodies for EphB4 was goat polyclonal antibody (R&D Systems AF3038); for EphA2 was goat polyclonal antibody (R&D Systems AF3035); 10 ug of cell lysate was applied to the ELISA well for two hours at room temperature. The amount of tyrosine phosphorylation was measured with pTyr-HRP antibody (R&D Systems, HAM1676). The ELISA was developed with 3,3′,5,5′-Tetramethylbenzidine (TMB) (ThermoFisher Scientific, 7588927) for 15 minutes and stopped with 1M H2SO4 (Sigma-Aldrich, 258105). Absorbance at 450 nm was measured using POLARstar Optima plate reader (BMG Labtech, Cary, NC). All conditions were tested in duplicate. pEphB2 was measured by ELISA (Ray Biotech, PEL-EphB2-Y) according to the manufacturer's recommendations.
(In general: An ELISA detects its analyte on a solid surface through an enzyme-linked reagent.)

The test system of another assay is SW620. Briefly: Cell cycle analysis by flow cytometry in colorectal cancer cells (SW620). It counts as cell-based, human. The conditions noted are these: 72 hours; compared to control and NVP/NVP-Iso. The procedure: Cell cycle was assessed by flow cytometry. Adherent cells were harvested, washed with PBS and fixed for 30 minutes in cold 70% ethanol at 4° C. Cells were washed twice with PBS, treated with 2.5 μg/mL RNaseA (ThermoFisher, 12091039) for 30 minutes at room temperature, and then stained with 10 μg propidium iodide for 15 minutes prior to analysis performed on FACS Canton (BD Biosciences; San Jose, CA) and cell cycled analyzed (FloJo software).
In general terms: A flow cytometer gives signals particle by particle.

For the next assay, the system named is SW620 cells. Briefly: Cleaved caspase-3 immunofluorescence microscopy in colorectal cancer cells (SW620). It is filed as cell-based, human. The conditions noted are these: 72 hours. As to the method: Cell viability was also measured by detection of cell-associated cleaved caspase-3. Cells were grown on gelatin-coated glass chamber slides, fixed in 4% paraformaldehyde, immune-stained with rabbit monoclonal antibody to cleaved Caspase 3 (1:100 Cell Signaling Technology) followed by Alexa Fluor 488-conjugated anti-rabbit IgG (1:400 Invitrogen) and mounted with Vectastain containing DAPI (Vector Laboratories). The slides were imaged through a Zeiss LSM780 confocal microscope. Image quantification (cleaved Caspase-3^+ nucleiltotal nuclei) was performed by CellProfiler software.

Another assay deals with EphB4 (Homo sapiens (Human), UniProt P54760). Briefly: Endogenous EphB4 tyrosine phosphorylation by ELISA in HT29 cell lysates. It is filed as cell-based. The procedure: as §1
EphB4, sequence (P54760 16-987): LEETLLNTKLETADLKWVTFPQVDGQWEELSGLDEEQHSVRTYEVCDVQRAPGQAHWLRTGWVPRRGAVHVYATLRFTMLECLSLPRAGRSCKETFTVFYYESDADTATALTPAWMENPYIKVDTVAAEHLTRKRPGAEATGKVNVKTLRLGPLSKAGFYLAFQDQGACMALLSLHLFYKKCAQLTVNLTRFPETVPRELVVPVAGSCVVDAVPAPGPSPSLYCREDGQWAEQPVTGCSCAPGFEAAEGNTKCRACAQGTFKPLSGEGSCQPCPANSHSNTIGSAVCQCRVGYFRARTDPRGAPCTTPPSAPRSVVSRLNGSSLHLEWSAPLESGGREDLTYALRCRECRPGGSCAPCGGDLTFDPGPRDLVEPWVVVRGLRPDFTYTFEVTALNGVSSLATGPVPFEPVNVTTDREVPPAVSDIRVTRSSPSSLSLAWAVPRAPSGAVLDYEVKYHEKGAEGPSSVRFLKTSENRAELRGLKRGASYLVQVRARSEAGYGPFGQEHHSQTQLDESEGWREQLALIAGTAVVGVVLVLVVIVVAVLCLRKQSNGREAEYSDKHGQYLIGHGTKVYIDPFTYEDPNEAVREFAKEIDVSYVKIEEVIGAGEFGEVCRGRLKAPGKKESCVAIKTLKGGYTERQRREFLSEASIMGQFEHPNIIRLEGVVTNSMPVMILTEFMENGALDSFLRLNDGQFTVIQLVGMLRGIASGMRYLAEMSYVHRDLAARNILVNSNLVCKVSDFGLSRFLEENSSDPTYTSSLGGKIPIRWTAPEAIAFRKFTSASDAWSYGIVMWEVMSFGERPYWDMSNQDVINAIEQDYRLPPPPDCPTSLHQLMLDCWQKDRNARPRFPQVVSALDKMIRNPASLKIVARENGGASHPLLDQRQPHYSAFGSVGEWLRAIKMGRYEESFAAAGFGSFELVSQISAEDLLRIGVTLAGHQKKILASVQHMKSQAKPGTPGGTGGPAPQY
Assay [2] relates to LC3B. Briefly: LC3B autophagy marker by immunoblotting in HT-29 cells. It is filed as cell-based, human. The conditions noted are these: for LC3B accumulation in cells treated with 1 μM NVP or NVP-Iso: spautin 5 μM, 3-MA 5 mM, chloroquine 10 μM. The procedure:
Western blotting. Protein lysates were separated by SDS-PAGE and then transferred to a nitrocellulose membrane. After blocking, membranes were incubated overnight with antibodies to LC3 (rabbit Monoclonal antibody, Cell Signaling).

Another assay concerns the target EphB2 (Homo sapiens (Human), UniProt P29323). Briefly: Endogenous EphB2 tyrosine phosphorylation by ELISA in Colo-205 cell lysates. It is filed as cell-based. The procedure: as §1
The test system of assay [3] is colorectal carcinoma cell lines. Briefly: Proliferation of 10 colorectal carcinoma cell lines. It is filed as cell-based, human. The conditions noted are these: 1 μM, all colorectal carcinoma cell lines.
Assay [4] concerns the target T1, EphA2. Briefly: Binding affinity to EphA2 by microscale thermophoresis (MST). The conditions noted are these: for pKd: towards EphA2. From the text: The binding affinities of the compounds to EphA2 were investigated by microscale thermophoresis (MST) (M. Jerabek-Willemsen et al., J. Mol. Struct. 2014, 1077, 101-113).
(In general: In MST a laser heats a spot of the sample, and binding alters the fluorescence response.)

For assay [5], the system named is LC3B. Briefly: LC3B accumulation in SW620 cells. It is filed as cell-based, human. The conditions noted are these: pre-treatment 4 hours; spautin 5 μM, 3-MA 5 mM. The procedure:
Western blotting. Protein lysates were separated by SDS-PAGE and then transferred to a nitrocellulose membrane. After blocking, membranes were incubated overnight with antibodies to LC3 (rabbit Monoclonal antibody, Cell Signaling). After washing with TBS-T (TBS with 0.05 Tween-20), membranes were incubated with the HRP (Horseradish peroxidase)-linked secondary antibody (IgG donkey anti-rabbit IgG (NA934) (GE LifeSciences, Marlborough, MA). Blots were developed using ECL prime (GE LifeSciences, RPN2232) and digitally captured on an LAS4000 (GE LifeSciences). After stripping, the membrane was re-probed with a mouse monoclonal antibody to GAPDH (Santa Cruz) followed by a secondary IgG sheep anti-mouse IgG (NA931). Western blot bands were quantified using Fiji (Schindelin et al., 2012).

The next assay relates to HT-29 cells. Briefly: HT-29 cell proliferation (3H-thymidine incorporation). It counts as cell-based, human. The conditions noted are these: co-treatment with autophagy inhibitor, 72 hours.
The test system of another assay is LC3. Briefly: LC3 autophagic puncta imaging in HT-29 cells transduced with fluorescent LC3. It counts as cell-based, human. The conditions noted are these: spautin 4-hour pretreatment. As to the method:
Autophagy-related cell death was assessed by evaluation of LC3 autophagy-associated protein. The cells were first induced to stably express fluorescent pK (pHluorin-mKate2) LC3 by lentiviral infection. The cells were subsequently grown on glass coverslips (ThermoFisher, 12-545-81) until 50% confluent. Coverslips were washed with PBS −/−, fixed with 4% PEA for 15 minutes at room temperature, washed with TBS, mounted with DAPI-containing mounting media, allowed to harden overnight and sealed. Coverslips were imaged on a confocal Zeiss 780 microscope. Images were analyzed by CellProfiler using automatic thresholding to calculate the number of nuclei (DAPI staining) and the number of puncta. The results are expressed as the percent cells with two or more puncta. […] Monolayer cell confluency overtime was measured by IncuCyte HD (Essen BioSciences) imaging.
Immunostaining and microscopy. […] Maximum intensity projections (Zen Software 2.3 Blue Edition; Carl Zeiss) were used for quantification using CellProfiler software (Kamentsky et al., Bioinformatics 2011, 27:1179-1180) with automatic thresholding. Integrated intensity of CD31 was measured. The percent Ki-67 positive cells was measured by calculating the number of Ki-67 positive cells/total number DAPI^+ nuclei. The area of cleaved Caspase-3 positive area/total area was calculated by CellProfiler with automatic threshold. […]

The values that follow come from patent US12486270B2, “Receptor tyrosine kinase inhibitors for treatment of protein kinase modulation-responsive disease or disorder” (THE UNITED STATES OF AMERICA, as represented by the …, priority 2019, dated 2025).

Structures are written as SMILES. pKd: −log10 of the molar value. Some results are limits rather than exact numbers.

T1 sequence (P29317 24-976): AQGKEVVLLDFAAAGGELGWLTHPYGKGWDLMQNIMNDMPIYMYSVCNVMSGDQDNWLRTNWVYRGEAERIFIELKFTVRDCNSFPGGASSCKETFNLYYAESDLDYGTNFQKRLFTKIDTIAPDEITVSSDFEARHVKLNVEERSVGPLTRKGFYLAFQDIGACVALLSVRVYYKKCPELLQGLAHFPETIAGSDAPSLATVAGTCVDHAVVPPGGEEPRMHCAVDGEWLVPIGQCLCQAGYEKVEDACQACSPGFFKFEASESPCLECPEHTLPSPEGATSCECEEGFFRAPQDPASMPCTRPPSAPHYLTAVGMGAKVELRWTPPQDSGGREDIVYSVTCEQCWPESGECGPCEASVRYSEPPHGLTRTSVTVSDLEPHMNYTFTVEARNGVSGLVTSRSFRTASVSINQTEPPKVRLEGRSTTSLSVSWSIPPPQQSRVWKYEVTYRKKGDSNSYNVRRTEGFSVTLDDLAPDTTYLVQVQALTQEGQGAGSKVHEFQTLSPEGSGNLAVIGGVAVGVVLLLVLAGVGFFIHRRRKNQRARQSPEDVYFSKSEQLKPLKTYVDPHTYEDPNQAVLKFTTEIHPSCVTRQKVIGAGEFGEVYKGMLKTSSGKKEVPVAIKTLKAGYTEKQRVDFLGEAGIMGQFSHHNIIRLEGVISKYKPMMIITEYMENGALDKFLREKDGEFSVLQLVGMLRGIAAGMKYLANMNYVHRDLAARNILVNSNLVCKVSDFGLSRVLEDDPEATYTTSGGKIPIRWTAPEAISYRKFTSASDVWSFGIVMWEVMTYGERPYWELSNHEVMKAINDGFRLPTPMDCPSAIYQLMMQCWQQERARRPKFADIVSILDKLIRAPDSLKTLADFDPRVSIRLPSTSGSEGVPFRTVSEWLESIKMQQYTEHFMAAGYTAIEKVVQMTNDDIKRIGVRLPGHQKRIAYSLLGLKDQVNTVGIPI
EphB2, sequence (P29323 19-1055): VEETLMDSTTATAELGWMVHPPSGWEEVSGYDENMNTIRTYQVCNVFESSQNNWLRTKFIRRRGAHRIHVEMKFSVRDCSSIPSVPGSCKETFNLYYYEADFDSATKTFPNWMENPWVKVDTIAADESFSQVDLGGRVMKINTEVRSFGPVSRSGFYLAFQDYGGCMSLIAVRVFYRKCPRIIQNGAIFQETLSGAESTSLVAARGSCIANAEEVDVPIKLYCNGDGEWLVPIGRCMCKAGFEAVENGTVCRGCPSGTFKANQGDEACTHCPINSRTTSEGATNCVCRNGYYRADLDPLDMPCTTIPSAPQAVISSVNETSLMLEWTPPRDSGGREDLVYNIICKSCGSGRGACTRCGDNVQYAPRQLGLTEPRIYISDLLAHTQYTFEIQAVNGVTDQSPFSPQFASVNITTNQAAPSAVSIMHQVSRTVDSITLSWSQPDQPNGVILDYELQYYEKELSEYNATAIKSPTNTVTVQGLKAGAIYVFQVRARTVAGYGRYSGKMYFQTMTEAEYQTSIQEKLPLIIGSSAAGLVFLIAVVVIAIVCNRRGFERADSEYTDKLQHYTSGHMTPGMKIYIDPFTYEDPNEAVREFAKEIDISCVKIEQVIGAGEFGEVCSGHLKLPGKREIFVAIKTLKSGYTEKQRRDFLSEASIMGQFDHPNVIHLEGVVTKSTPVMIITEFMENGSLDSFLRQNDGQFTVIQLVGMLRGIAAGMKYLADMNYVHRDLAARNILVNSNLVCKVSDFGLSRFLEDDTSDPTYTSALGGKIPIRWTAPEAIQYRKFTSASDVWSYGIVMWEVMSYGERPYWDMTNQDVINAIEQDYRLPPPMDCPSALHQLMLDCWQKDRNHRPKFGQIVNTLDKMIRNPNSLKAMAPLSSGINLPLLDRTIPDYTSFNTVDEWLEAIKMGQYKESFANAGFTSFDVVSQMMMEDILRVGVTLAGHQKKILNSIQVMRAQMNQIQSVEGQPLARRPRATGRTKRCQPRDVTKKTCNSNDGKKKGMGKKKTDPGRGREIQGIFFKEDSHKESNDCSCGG

As for `Cc1ccc(C(=O)Nc2cccc(C(F)(F)F)c2)cc1Nc1nc(-c2cncnc2)nc2c1cnn2C` [@3, 4-Methyl-3-((1-methyl-6-(pyrimidin-5-yl)-1H-pyrazolo[3,4-d]pyrimidin-4-yl)amino)-N-(3-(trifluoromethyl)phenyl)benzamide], the “inhibitory activity for p-EphA2 compared to NVP” value against EphA2 [1] (four hours treatment) is on record as “comparable or only slightly reduced inhibitory activity”. The “distribution of cells within the cell cycle” value in the assay with SW620 is “marked reduction of the proportion of cells within the G2M phase”. In addition, the “cleaved caspase-3 detection in treated cells” value in the assay with SW620 cells was “only in a minority of cells”. Moreover, on EphB4 (four hours treatment), the “inhibitory activity for p-EphB4 compared to NVP” value is “comparable or only slightly reduced inhibitory activity”. For the same molecule, the “induction of autophagosome marker LC3B (immunoblotting)” value in the assay with LC3B [2] (72-hour incubation) was “failure”. The “inhibitory activity for p-EphB2 compared to NVP” value against EphB2 (four hours treatment) is “comparable or only slightly reduced inhibitory activity”.

Consider `Cc1ccc(C(=O)Nc2cccc(C(F)(F)F)c2)cc1Nc1nc(-c2cccnc2)nc2c1cnn2C` [NVP, NVP-BHG712], for which the reduction of proliferation in assay [3] is over 50%.

One may read the pKd as the negative decadic logarithm of the Kd, by convention in mol/L. A higher pKd goes with a low Kd. As for `Cc1ccc(C(=O)Nc2cccc(C(F)(F)F)c2)cc1Nc1nc(-c2cccnc2)nc2ccccc12` [@4, 4-Methyl-3-((2-(pyridin-3-yl)quinazolin-4-yl)amino)-N-(3-(trifluoromethyl)phenyl)benzamide], at EphA2 [4], the pKd is 7.07.

`Cc1ccc(C(=O)Nc2cccc(C(F)(F)F)c2)cc1Nc1nc(-c2cccnc2)nc(-c2cccnc2)n1` [@6, 3-((4,6-Di(pyridin-3-yl)-1,3,5-triazin-2-yl)amino)-4-methyl-N-(3-(trifluoromethyl)phenyl)benzamide]: the pKd on EphA2 [4] was 7.62.

Consider `Cc1ccc(C(=O)Nc2cccc(Cl)c2)cc1Nc1nc(N2CC[C@H](O)C2)nc(-n2ccnc2)n1` [@13, (S)-N-(3-chlorophenyl)-3-((4-(3-hydroxypyrrolidin-1-yl)-6-(1H-imidazol-1-yl)-1,3,5-triazin-2-yl)amino)-4-methylbenzamide], for which the pKd at EphA2 [4] was 7.01.

As for `Cc1ccc(C(=O)Nc2cccc(C(F)(F)F)c2)cc1Nc1nc(-c2cccnc2)nc2ncccc12` [@5, 4-Methyl-3-((2-(pyridin-3-yl)pyrido[2,3-d]pyrimidin-4-yl)amino)-N-(3-(trifluoromethyl)phenyl)benzamide], the “reduction of EphA2 phosphorylation” value at EphA2 [1] (at 2 μM) is given as “marginal reduction”. At EphA2 [4], this molecule gave a pKd of 6.65. Moreover, at EphB4 (at 2 μM), the “reduction of EphB4 phosphorylation” value is listed as “marginal reduction”. Moreover, the “reduction of EphB2 phosphorylation” value at EphB2 (at 2 μM) is given as “marginal reduction”.

`Cn1cnc(N)c2ncnc1-2` [3-Methyladenine]: the “LC3B accumulation induced by NVP and NVP-Iso in SW620 cells” value with LC3B [5] is on record as “reduces this LC3B accumulation”. Further, in the assay with HT-29 cells, the “anti-proliferative effects of NVP and NVP-Iso in colorectal cancer cells” value is “mitigated the anti-proliferative”. In the assay on LC3B [2], the “LC3B accumulation in cells treated with 1 μM NVP or NVP-Iso” value (from here on “LC3B accumulation in cells treated”) is on record as “reduced accumulation of LC3B”.

Consider `Fc1ccc(CNc2ncnc3ccc(F)cc23)cc1` [Spautin, spautin-1], for which the “LC3B accumulation induced by NVP and NVP-Iso in SW620 cells” value with LC3B [5] is given as “reduces this LC3B accumulation”. In the assay with LC3, the “LC3-related puncta/cell increased by NVP and NVP-Iso” value is listed as “reduces this drug-effect”. Moreover, the “anti-proliferative effects of NVP and NVP-Iso in colorectal cancer cells” value with HT-29 cells is “mitigated the anti-proliferative”. Further, the “LC3B accumulation in cells treated” value with LC3B [2] is reported as “reduced accumulation of LC3B”.

As for `Cc1cc(C(=O)Nc2cccc(C(F)(F)F)c2)ccc1Nc1nc(N2CCNCC2)nc(-n2ccnc2)n1` [@11], the pKd at EphA2 [4] was 6.35.

On to `CCN(CC)CCCC(C)Nc1ccnc2cc(Cl)ccc12` (stereo not shown) [chloroquine, Chloroquine], for which, in the assay on LC3B [2], the “LC3B accumulation in cells treated” value is listed as “enhanced the accumulation of LC3B”.

Take `Cc1cc(C(=O)Nc2cccc(C(F)(F)F)c2)ccc1Nc1nc(-c2cnccn2)nc2nn(C)cc12` [@7]: the pKd on EphA2 [4] was about 5.54.

In the case of `Cc1cc(C(=O)Nc2cccc(C(F)(F)F)c2)ccc1Nc1nc(N2CC[C@H](O)C2)nc(-n2ccnc2)n1` [@12], the negative-log Kd (pKd) on EphA2 [4] is 6.88.

For `Cc1cc(C(=O)Nc2cccc(C(F)(F)F)c2)ccc1Nc1nc(N2CCCC2)nc(-n2ccnc2)n1` [@9], the pKd at EphA2 [4] is 7.47.

`Cc1ccc(C(=O)Nc2cccc(C(F)(F)F)c2)cc1Nc1nc(-c2cnccn2)nc2nn(C)cc12` [@2, 4-Methyl-3-((2-methyl-6-(pyrazin-2-yl)-2H-pyrazolo[3,4-d]pyrimidin-4-yl)amino)-N-(3-(trifluoromethyl)-phenyl)benzamide]: at EphA2 [4] (compared with @1 and @3), the “fold lower binding affinity towards EphA2” value is reported as 44 fold. The molecule further had a pKd on EphA2 [4] of 6.88.
